Assay results reported in patent US20260216164A1, “INDOLE COMPOUND DECOMPOSING IKZF2, AND USE THEREOF” (KOREA RESEARCH INSTITUTE OF CHEMICAL TECHNOLOGY, priority 2023, published 2026).

Target: Helios (IKZF2) (Homo sapiens, UniProt Q96SW2+Q9UKS7)
Test: Screening of Helios protein degraders using Nano-Glo HiBiT cell line (HiBiT-IKZF2)
Assay type: cell-based
Details: 6 hours, HiBiT-Helios knock-in Jurkat cells; for remaining activity at 1 µM: compound 1 μM, read-out: HiBiT-IKZF2 Residual amount of Helios (%) 1 μM; for remaining activity at 10 µM: compound 10 μM, read-out: HiBiT-IKZF2 Residual amount of Helios (%) 10 μM
Procedure: To observe intracellular degradation of Helios, the Nano-Glo HiBiT detection system (Promega) was employed. […] The cells expressing Helios fused with HiBiT were validated using the Nano-Glo HiBiT detection system (Promega) according to a predetermined protocol, isolated as single cells, and cultured in complete medium to establish a monoclonal cell line.
After 6 hours, the Nano-Glo HiBiT detection reagent was added to each well in an equal volume to the cell culture medium and incubated at room temperature for 10 minutes. Following incubation, the HiBiT luminescence signal was measured using a microplate reader (Perkin Elmer).

Sequence of Helios (IKZF2) (Q9UKS7 whole entry): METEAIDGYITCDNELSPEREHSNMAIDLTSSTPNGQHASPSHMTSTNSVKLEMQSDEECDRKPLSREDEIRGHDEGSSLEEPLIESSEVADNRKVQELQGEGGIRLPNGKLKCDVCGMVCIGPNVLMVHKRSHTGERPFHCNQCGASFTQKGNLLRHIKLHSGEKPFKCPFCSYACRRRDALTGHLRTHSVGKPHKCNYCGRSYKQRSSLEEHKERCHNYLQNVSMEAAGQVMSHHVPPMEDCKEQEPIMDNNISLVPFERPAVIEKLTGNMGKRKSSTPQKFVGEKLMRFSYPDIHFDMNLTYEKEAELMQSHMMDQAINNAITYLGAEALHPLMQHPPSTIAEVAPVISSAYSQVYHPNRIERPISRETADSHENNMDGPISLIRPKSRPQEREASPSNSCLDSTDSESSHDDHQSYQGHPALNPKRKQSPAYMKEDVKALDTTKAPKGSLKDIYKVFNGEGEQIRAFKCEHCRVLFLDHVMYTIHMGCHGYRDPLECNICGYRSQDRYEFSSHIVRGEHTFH
Sequence of Helios (IKZF2) (Q96SW2 whole entry): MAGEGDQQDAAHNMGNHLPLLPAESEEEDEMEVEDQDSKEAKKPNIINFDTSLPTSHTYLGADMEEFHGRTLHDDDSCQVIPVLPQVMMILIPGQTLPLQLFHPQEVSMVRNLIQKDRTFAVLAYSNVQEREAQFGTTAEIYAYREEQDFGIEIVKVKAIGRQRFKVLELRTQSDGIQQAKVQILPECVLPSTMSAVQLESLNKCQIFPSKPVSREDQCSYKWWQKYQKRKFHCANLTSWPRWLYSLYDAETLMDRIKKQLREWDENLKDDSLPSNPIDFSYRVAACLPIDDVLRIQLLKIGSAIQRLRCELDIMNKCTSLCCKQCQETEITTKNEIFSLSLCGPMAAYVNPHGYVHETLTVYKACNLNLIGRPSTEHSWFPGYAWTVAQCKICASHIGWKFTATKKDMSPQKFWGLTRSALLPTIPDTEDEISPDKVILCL
Sequence of Helios (IKZF2) (Q16531 whole entry partner): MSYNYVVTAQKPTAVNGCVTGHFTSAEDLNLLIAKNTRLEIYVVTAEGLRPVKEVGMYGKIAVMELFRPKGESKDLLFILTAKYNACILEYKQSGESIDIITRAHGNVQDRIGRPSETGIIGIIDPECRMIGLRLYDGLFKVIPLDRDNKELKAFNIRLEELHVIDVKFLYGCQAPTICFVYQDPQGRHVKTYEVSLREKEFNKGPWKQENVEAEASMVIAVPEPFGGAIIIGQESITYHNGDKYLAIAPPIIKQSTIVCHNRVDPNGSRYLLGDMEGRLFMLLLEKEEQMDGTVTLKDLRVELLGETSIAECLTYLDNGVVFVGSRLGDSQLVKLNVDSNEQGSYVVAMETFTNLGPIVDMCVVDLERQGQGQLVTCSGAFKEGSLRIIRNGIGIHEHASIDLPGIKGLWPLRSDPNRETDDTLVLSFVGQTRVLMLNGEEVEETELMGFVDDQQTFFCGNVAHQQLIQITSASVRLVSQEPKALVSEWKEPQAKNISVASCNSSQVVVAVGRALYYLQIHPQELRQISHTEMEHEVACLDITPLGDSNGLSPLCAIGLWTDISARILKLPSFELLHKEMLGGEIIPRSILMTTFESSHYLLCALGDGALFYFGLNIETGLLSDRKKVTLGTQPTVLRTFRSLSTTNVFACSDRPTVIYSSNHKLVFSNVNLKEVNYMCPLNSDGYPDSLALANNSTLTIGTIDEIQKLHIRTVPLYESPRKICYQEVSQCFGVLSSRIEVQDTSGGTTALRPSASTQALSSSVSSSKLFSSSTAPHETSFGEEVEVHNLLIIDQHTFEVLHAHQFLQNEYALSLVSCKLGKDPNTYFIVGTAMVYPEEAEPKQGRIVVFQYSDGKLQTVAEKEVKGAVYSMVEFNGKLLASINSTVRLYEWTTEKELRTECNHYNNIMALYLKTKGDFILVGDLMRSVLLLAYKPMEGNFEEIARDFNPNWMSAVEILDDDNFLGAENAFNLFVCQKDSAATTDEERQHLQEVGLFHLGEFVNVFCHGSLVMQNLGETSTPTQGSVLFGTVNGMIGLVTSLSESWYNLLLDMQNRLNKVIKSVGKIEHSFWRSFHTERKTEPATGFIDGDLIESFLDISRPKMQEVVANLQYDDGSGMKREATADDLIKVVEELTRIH

Structure (SMILES): Cc1c(C(=O)N2CCC(=Cc3ccc4c(c3)CN(C3CCC(=O)NC3=O)C4=O)CC2)[nH]c2cc(Cl)ccc12 (stereo not drawn) [Compound 44, 3-(5-((1-(6-chloro-3-methyl-1H-indole-2-carbonyl)piperidin-4-ylidene)methyl)-1-oxoinsoindolin-2-yl)piperidine-2,6-dione]
- remaining activity at 1 µM: 69.7%
- remaining activity at 10 µM: 61.1%

Structure (SMILES): Cc1c(C(=O)N2CC=C(c3ccc4c(c3)CN(C3CCC(=O)NC3=O)C4=O)C2)[nH]c2cc(Cl)ccc12 (stereo not drawn) [Compound 65, 3-(5-(1-(6-chloro-3-methyl-1H-indole-2-carbonyl)-2,5-dihydro-1H-pyrrol-3-yl)-1-oxoinsoindolin-2-yl)piperidine-2,6-dione]
- remaining activity at 10 µM: 109%

Structure (SMILES): O=C1CCC(N2Cc3cc(C4CCN(Cc5ccccc5)CC4)ccc3C2=O)C(=O)N1 (stereo not drawn) [Comparative Substance 1 (DKY709), reference compound]
- remaining activity at 10 µM: 40%

Structure (SMILES): COc1ccc2c(CN3CCOCC3)c(C(=O)N3CCC(c4ccc5c(c4)CN(C4CCC(=O)NC4=O)C5=O)CC3)[nH]c2c1 (stereo not drawn) [Compound 110, 3-(5-(1-(6-methoxy-3-(morpholinomethyl)-1H-indole-2-carbonyl)piperidin-4-yl)-1-oxoinsoindolin-2-yl)piperidine-2,6-dione]
- remaining activity at 1 µM: 14.2%

Structure (SMILES): Cc1c(C(=O)N2CCC(c3ccc4c(c3)CN(C3CCC(=O)NC3=O)C4=O)CC2)[nH]c2cc(F)ccc12 (stereo not drawn) [Compound 54, 3-(5-(1-(6-fluoro-3-methyl-1H-indole-2-carbonyl)piperidin-4-yl)-1-oxoinsoindolin-2-yl)piperidine-2,6-dione]
- remaining activity at 10 µM: 26.8%

Structure (SMILES): Cc1c(C(=O)N2CCC(c3ccc4c(c3)CN(C3CCC(=O)NC3=O)C4=O)CC2)[nH]c2cc(N)ccc12 (stereo not drawn) [Compound 61, 3-(5-(1-(6-amino-3-methyl-1H-indole-2-carbonyl)piperidin-4-yl)-1-oxoinsoindolin-2-yl)piperidine-2,6-dione]
- remaining activity at 10 µM: 35%

Structure (SMILES): COc1ccc2[nH]c(C(=O)N3CCC(c4ccc5c(c4)CN(C4CCC(=O)NC4=O)C5=O)CC3)cc2c1 (stereo not drawn) [Compound 10, 3-(5-(1-(5-methoxy-1H-indole-2-carbonyl)piperidin-4-yl)-1-oxoinsoindolin-2-yl)piperidine-2,6-dione]
- remaining activity at 1 µM: 94.6%
- remaining activity at 10 µM: 97.3%

Structure (SMILES): O=C1CCC(N2Cc3cc(C4CCN(C(=O)c5cc6ccc(O)cc6[nH]5)CC4)ccc3C2=O)C(=O)N1 (stereo not drawn) [Compound 18, 3-(5-(1-(6-hydroxy-1H-indole-2-carbonyl)piperidin-4-yl)-1-oxoinsoindolin-2-yl)piperidine-2,6-dione]
- remaining activity at 1 µM: 53.6%
- remaining activity at 10 µM: 54.4%

Structure (SMILES): COc1ccc2cc(C(=O)Nc3ccc4c(c3)CN(C3CCC(=O)NC3=O)C4=O)ccc2c1 (stereo not drawn) [Comparative Substance 4, N-(2-(2,6-dioxopiperidin-3-yl)-1-oxoindolin-5-yl)-6-methoxy-2-naphthamide, reference compound]
- remaining activity at 1 µM: 58%
- remaining activity at 10 µM: 56.2%

Structure (SMILES): O=C1CCC(N2Cc3cc(C4CCN(C(=O)c5cc6ccc(C(F)(F)F)cc6[nH]5)CC4)ccc3C2=O)C(=O)N1 (stereo not drawn) [Compound 41, 3-(1-oxo-5-(1-(6-(trifluoromethyl)-1H-indole-2-carbonyl)piperidin-4-yl)isoindolin-2-yl)piperidine-2,6-dione]
- remaining activity at 1 µM: 41.7%
- remaining activity at 10 µM: 38.5%

Structure (SMILES): Cc1cccc2cc(C(=O)N3CCC(c4ccc5c(c4)CN(C4CCC(=O)NC4=O)C5=O)CC3)[nH]c12 (stereo not drawn) [Compound 16, 3-(5-(1-(7-methyl-1H-indole-2-carbonyl)piperidin-4-yl)-1-oxoinsoindolin-2-yl)piperidine-2,6-dione]
- remaining activity at 1 µM: 78.5%
- remaining activity at 10 µM: 80.4%

Structure (SMILES): Cc1c(C(=O)N2CCC(c3ccc4c(c3)CN(C3CCC(=O)NC3=O)C4=O)CC2)[nH]c2cc(CN3CCNCC3)ccc12 (stereo not drawn) [Compound 106, 3-(5-(1-(3-methyl-6-(piperazin-1-ylmethyl)-1H-indole-2-carbonyl)piperidin-4-yl)-1-oxoinsoindolin-2-yl)piperidine-2,6-dione dichloride]
- remaining activity at 1 µM: 42.8%
- remaining activity at 10 µM: 33.6%

Structure (SMILES): Cc1c(C(=O)N2CCC(N3CCC(c4ccc5c(c4)CN(C4CCC(=O)NC4=O)C5=O)CC3)CC2)[nH]c2cc(Cl)ccc12 (stereo not drawn) [Compound 62, 3-(5-(1-(6-chloro-3-methyl-1H-indole-2-carbonyl)-[1,4′-bipiperidin]-4-yl)-1-oxoinsoindolin-2-yl)piperidine-2,6-dione]
- remaining activity at 10 µM: 23.8%

Structure (SMILES): O=C1CCC(N2Cc3cc(C=C4CCN(C(=O)c5c[nH]c6ccccc56)CC4)ccc3C2=O)C(=O)N1 (stereo not drawn) [Compound 25, 3-(5-((1-(1H-indole-3-carbonyl)piperidin-4-ylidene)methyl)-1-oxoinsoindolin-2-yl)piperidine-2,6-dione]
- remaining activity at 1 µM: 93.6%
- remaining activity at 10 µM: 87.5%

Structure (SMILES): N#Cc1c(C(=O)N2CCC(c3ccc4c(c3)CN(C3CCC(=O)NC3=O)C4=O)CC2)[nH]c2ccccc12 (stereo not drawn) [Compound 51, 2-(4-(2-(2,6-dioxopiperidin-3-yl)-1-oxoindolin-5-yl)piperidine-1-carbonyl)-1H-indole-3-carbonitrile]
- remaining activity at 10 µM: 76.6%

Structure (SMILES): O=C1CCC(N2Cc3cc(C4CCN(C(=O)c5cc6ccccc6[nH]5)CC4)ccc3C2=O)C(=O)N1 (stereo not drawn) [Compound 9, 3-(5-(1-(1H-indole-2-carbonyl)piperidin-4-yl)-1-oxoinsoindolin-2-yl)piperidine-2,6-dione]
- remaining activity at 1 µM: 94.5%
- remaining activity at 10 µM: 99.5%

Structure (SMILES): O=C1CCC(N2Cc3cc(C4CCN(C(=O)c5[nH]c6cc(Cl)ccc6c5CO)CC4)ccc3C2=O)C(=O)N1 (stereo not drawn) [Compound 105, 3-(5-(1-(6-chloro-3-(hydroxymethyl)-1H-indole-2-carbonyl)piperidin-4-yl)-1-oxoinsoindolin-2-yl)piperidine-2,6-dione]
- remaining activity at 1 µM: 15.2%
- remaining activity at 10 µM: 8.5%

Structure (SMILES): Cc1c(C(=O)N2CCC(c3ccc4c(c3)CN(C3CCC(=O)NC3=O)C4=O)CC2)[nH]c2ccc(Cl)cc12 (stereo not drawn) [Compound 38, 3-(5-(1-(5-chloro-3-methyl-1H-indole-2-carbonyl)piperidin-4-yl)-1-oxoinsoindolin-2-yl)piperidine-2,6-dione]
- remaining activity at 1 µM: 80%
- remaining activity at 10 µM: 65.1%

Structure (SMILES): Cc1c(C(=O)N2CCC(C#Cc3ccc4c(c3)CN(C3CCC(=O)NC3=O)C4=O)CC2)[nH]c2cc(Cl)ccc12 (stereo not drawn) [Compound 43, 3-(5-((1-(6-chloro-3-methyl-1H-indole-2-carbonyl)piperidin-4-yl)ethynyl)-1-oxoinsoindolin-2-yl)piperidine-2,6-dione]
- remaining activity at 1 µM: 22.7%
- remaining activity at 10 µM: 15.7%

Structure (SMILES): O=C1CCC(N2Cc3cc(C4CCN(C(=O)c5[nH]c6ccccc6c5Cl)CC4)ccc3C2=O)C(=O)N1 (stereo not drawn) [Compound 22, 3-(5-(1-(3-chloro-1H-indole-2-carbonyl)piperidin-4-yl)-1-oxoinsoindolin-2-yl)piperidine-2,6-dione]
- remaining activity at 1 µM: 64.5%
- remaining activity at 10 µM: 67%

Structure (SMILES): O=C1CCC(N2Cc3cc(C4CCN(C(=O)C5=Nc6cccc(Cl)c6C5)CC4)ccc3C2=O)C(=O)N1 (stereo not drawn) [Compound 4, 3-(5-(1-(4-chloro-1H-indole-2-carbonyl)piperidin-4-yl)-1-oxoinsoindolin-2-yl)piperidine-2,6-dione]
- remaining activity at 1 µM: 104%
- remaining activity at 10 µM: 106%

Structure (SMILES): CCc1c(C(=O)N2CCC(c3ccc4c(c3)CN(C3CCC(=O)NC3=O)C4=O)CC2)[nH]c2ccccc12 (stereo not drawn) [Compound 29, 3-(5-(1-(3-ethyl-1H-indole-2-carbonyl)piperidin-4-yl)-1-oxoinsoindolin-2-yl)piperidine-2,6-dione]
- remaining activity at 1 µM: 73.6%
- remaining activity at 10 µM: 72.4%

Structure (SMILES): Cc1c(C(=O)N2CCC(c3ccc4c(c3)CN(C3CCC(=O)NC3=O)C4=O)CC2)[nH]c2cc(Cl)c(Br)cc12 (stereo not drawn) [Compound 83, 3-(5-(1-(5-bromo-6-chloro-3-methyl-1H-indole-2-carbonyl)piperidin-4-yl)-1-oxoinsoindolin-2-yl)piperidine-2,6-dione]
- remaining activity at 10 µM: 49%

Structure (SMILES): O=C1CCC(N2Cc3cc(C#CCC4CCN(C(=O)c5c[nH]c6ccccc56)CC4)ccc3C2=O)C(=O)N1 (stereo not drawn) [Compound 23, 3-(5-(3-(1-(1H-indole-3-carbonyl)piperidin-4-yl)prop-1-yn-1-yl)-1-oxoinsoindolin-2-yl)piperidine-2,6-dione]
- remaining activity at 1 µM: 101%
- remaining activity at 10 µM: 99.6%

Structure (SMILES): O=C1CCC(N2Cc3cc(C=C4CCN(C(=O)c5cc6ccc(Cl)cc6[nH]5)CC4)ccc3C2=O)C(=O)N1 (stereo not drawn) [Compound 26, 3-(5-((1-(6-chloro-1H-indole-2-carbonyl)piperidin-4-ylidene)methyl)-1-oxoinsoindolin-2-yl)piperidine-2,6-dione]
- remaining activity at 1 µM: 96%
- remaining activity at 10 µM: 97.6%

Structure (SMILES): O=C1CCC(N2Cc3cc(C4CCN(C(=O)c5[nH]c6ccccc6c5CN5CCOCC5)CC4)ccc3C2=O)C(=O)N1 (stereo not drawn) [Compound 34, 3-(5-(1-(3-(morpholinomethyl)-1H-indole-2-carbonyl)piperidin-4-yl)-1-oxoinsoindolin-2-yl)piperidine-2,6-dione]
- remaining activity at 1 µM: 66.5%
- remaining activity at 10 µM: 43.5%

Structure (SMILES): O=C1CCC(N2Cc3cc(C4CCN(C(=O)c5cc6cccc(F)c6[nH]5)CC4)ccc3C2=O)C(=O)N1 (stereo not drawn) [Compound 19, 3-(5-(1-(7-fluoro-1H-indole-2-carbonyl)piperidin-4-yl)-1-oxoinsoindolin-2-yl)piperidine-2,6-dione]
- remaining activity at 1 µM: 80.5%
- remaining activity at 10 µM: 82.7%

Structure (SMILES): O=C1CCC(N2Cc3cc(C4CCN(C(=O)c5[nH]c6ccccc6c5Br)CC4)ccc3C2=O)C(=O)N1 (stereo not drawn) [Compound 36, 3-(5-(1-(3-bromo-1H-indole-2-carbonyl)piperidin-4-yl)-1-oxoinsoindolin-2-yl)piperidine-2,6-dione]
- remaining activity at 1 µM: 50.9%
- remaining activity at 10 µM: 40.6%
